Data reported in US20160220557A1, “USE OF ACETYL-COA CARBOXYLASE INHIBITORS FOR TREATING ACNE VULGARIS” (PFIZER INC., priority 2013, published 2016).

Experiments:
[1] = target: hACC2 (Homo sapiens, UniProt O00763); assay: Radiometric ACC2 inhibition assay; format: biochemical
[2] = test system: SZ95 human sebocyte cells; assay: Inhibition of de novo lipogenesis (14C-acetate incorporation) in cultured human sebocytes; format: cell-based; conditions: for IC50: Homo sapiens, SZ95 sebocytes, 14C-acetate incorporation into lipids relative to vehicle, read-out: C9302E Sebocyte IC50
Protocol: SZ95 sebocytes were grown in Human Sebocyte Growth Medium (HSGM) (Sebomed® medium (Biochrom: F8205) supplemented with 10% heat-inactivated fetal bovine serum, 1% penicillin/streptomycin, 1 mM calcium chloride and 5 ng/mL recombinant human epidermal growth factor (Life Tech: PHG0311)). At 90% confluence, cells were washed three times with PBS and then detached with 0.05% Trypsin-EDTA. Cells were centrifuged and resuspended in HSGM containing 10% charcoal-stripped serum (Life Tech: 12676-029). Cells were then plated in 24-well plates at a density of 0.25×10^6 cells/well and were incubated overnight to enable cell adherence to the culture plate.
Cells were treated with a dose response of compound, and each dose was assayed in triplicate. Briefly, compounds were dissolved in DMSO stocks and diluted 1:1000 into charcoal-stripped media. 0.1% DMSO without compound was used as the vehicle control. After a 1 hour preincubation with compound or vehicle, 0.25 μCi ^14C-acetic acid (American Radiolabeled Chemicals: ARC0158B) was added to each well. Plates were then incubated for an additional two hours. At the end of the incubation period, cells were removed from incubator, placed on ice, and then washed twice with ice-cold PBS to remove free ^14C-acetic acid. Plates were sealed and stored at −20° C. until analysis.
Plates were shaken for 1 hour at room temperature to induce lysis. Lysates were transferred to individual 1.5 mL polypropylene tubes, and wells were washed with 175 μl of PBS, which was added to lysates. 450 μl of a 1:1 (v/v) chloroform:methanol solution was then added to each tube, and then all tubes were vortexed for 10 seconds and centrifuged at 20,000×g for 5 minutes at room temperature to separate aqueous from organic phase. A 25 μl aliquot was removed from the bottom organic layer of each sample and added to 6 mL OptiPhase supermix (PerkinElmer: 1200-439) scintillation fluid. Counts of ^14C incorporated into lipids were assessed by scintillation counting. DNL (counts of ^14C incorporated into lipids) was expressed for compound treated cells relative to DNL in the vehicle control treated cells for determination of EC50 values. For a subset of the compounds tested, a second aliquot (3×35 μl) of the organic layer of each sample was removed and applied to a TLC lane (Analtech Silica Gel G Plates). Radiolabeled lipids were resolved using a 2-solvent system. Solvent 1 contained a 100:100:100:40:36 mixture of ethyl acetate:isopropyl alcohol:CHCl3:MeOH:0.25% KCl and solvent 2 a 70:27:3 hexane:diethyl ether:acetic acid mix. The TLC plate was dried under nitrogen for 30 minutes and [^14C]-calibrators added to a vacant lane. Bands were visualized and quantitated using a Molecular Dynamics' Storm 860 Phosphorimager system following 18-36 hours exposure to a Phosphorimager screen.

[3] = target: hACC1 (Homo sapiens, UniProt Q13085); assay: Radiometric ACC1 inhibition assay; format: biochemical
[4] = in vivo
[5] = target: T1, CYP2C9 (Homo sapiens, UniProt P11712); assay: P450 inhibition in liver microsomes with probe substrates; format: in vitro ADME
T1 construct: from tissue; host or cells: liver microsomes

[6] = Human studies: safety, tolerability and pharmacokinetics after oral dosing; conditions: for median Tmax: oral
[7] = target: T2, CYP2B6 (Homo sapiens, UniProt P20813); assay: P450 inhibition in liver microsomes with probe substrates; format: in vitro ADME
T2 construct: from tissue; host or cells: liver microsomes
T2 sequence (P20813 1-491): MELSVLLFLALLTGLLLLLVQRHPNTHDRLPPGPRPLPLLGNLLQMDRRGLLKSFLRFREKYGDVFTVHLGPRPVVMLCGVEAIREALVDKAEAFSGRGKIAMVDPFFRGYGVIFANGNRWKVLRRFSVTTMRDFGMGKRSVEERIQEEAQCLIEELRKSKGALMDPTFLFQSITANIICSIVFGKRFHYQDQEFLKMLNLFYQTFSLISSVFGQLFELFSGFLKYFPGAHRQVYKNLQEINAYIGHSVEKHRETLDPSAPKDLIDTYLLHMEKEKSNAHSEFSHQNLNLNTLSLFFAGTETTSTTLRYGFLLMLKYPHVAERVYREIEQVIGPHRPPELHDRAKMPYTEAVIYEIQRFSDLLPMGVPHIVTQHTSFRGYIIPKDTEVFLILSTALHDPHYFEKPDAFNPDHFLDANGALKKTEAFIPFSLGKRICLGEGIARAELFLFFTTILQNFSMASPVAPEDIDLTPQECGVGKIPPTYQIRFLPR

[8] = target: CYP3A (Homo sapiens, UniProt P08684); assay: in vitro; conditions: microsomes
[9] = target: T3, recombinant human ACC1 (rhACC1) (Homo sapiens, UniProt Q13085, DEL44-44); assay: Transcreener ADP detection FP assay, recombinant human ACC1 inhibition; format: biochemical; conditions: recombinant human ACC1, 50 μM ATP; read-out: Transcreener Assay hACC1 IC50
T3 construct: His6 (N); made in house; host or cells: SF9 insect cells (baculovirus)

[10] = target: T4, CYP2C8 (Homo sapiens, UniProt P10632); assay: P450 inhibition in liver microsomes with probe substrates; format: in vitro ADME
T4 construct: from tissue; host or cells: liver microsomes
T4 sequence (P10632 1-490): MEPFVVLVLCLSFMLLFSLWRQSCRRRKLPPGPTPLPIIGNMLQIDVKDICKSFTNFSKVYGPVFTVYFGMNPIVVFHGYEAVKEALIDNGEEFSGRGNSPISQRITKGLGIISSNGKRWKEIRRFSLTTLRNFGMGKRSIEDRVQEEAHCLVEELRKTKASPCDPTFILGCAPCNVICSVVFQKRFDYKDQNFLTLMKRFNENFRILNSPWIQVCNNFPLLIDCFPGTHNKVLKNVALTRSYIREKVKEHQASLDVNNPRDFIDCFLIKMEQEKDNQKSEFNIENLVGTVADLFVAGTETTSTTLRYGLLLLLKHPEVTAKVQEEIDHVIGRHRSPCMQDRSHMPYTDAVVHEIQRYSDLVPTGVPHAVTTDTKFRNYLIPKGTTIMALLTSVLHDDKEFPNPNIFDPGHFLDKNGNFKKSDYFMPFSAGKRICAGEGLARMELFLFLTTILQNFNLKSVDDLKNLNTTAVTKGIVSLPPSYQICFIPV

[11] = clinical; conditions: human, in vivo, po
[12] = target: T5, CYP2C19 (Homo sapiens, UniProt P33261); assay: P450 inhibition in liver microsomes with probe substrates; format: in vitro ADME
T5 construct: from tissue; host or cells: liver microsomes
T5 sequence (P33261 whole entry): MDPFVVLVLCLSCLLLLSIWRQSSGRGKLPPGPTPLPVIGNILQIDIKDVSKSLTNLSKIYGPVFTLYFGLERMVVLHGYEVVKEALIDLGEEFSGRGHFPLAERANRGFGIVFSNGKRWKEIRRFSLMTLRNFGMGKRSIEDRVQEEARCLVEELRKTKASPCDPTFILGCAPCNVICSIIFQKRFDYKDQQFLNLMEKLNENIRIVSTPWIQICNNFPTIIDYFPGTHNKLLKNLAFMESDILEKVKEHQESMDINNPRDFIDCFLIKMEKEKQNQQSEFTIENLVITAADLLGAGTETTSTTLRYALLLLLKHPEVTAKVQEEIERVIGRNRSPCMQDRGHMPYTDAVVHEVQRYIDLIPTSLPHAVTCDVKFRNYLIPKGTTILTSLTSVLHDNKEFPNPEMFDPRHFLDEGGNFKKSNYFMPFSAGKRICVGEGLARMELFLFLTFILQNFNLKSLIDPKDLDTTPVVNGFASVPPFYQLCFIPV

hACC2, sequence (O00763 whole entry): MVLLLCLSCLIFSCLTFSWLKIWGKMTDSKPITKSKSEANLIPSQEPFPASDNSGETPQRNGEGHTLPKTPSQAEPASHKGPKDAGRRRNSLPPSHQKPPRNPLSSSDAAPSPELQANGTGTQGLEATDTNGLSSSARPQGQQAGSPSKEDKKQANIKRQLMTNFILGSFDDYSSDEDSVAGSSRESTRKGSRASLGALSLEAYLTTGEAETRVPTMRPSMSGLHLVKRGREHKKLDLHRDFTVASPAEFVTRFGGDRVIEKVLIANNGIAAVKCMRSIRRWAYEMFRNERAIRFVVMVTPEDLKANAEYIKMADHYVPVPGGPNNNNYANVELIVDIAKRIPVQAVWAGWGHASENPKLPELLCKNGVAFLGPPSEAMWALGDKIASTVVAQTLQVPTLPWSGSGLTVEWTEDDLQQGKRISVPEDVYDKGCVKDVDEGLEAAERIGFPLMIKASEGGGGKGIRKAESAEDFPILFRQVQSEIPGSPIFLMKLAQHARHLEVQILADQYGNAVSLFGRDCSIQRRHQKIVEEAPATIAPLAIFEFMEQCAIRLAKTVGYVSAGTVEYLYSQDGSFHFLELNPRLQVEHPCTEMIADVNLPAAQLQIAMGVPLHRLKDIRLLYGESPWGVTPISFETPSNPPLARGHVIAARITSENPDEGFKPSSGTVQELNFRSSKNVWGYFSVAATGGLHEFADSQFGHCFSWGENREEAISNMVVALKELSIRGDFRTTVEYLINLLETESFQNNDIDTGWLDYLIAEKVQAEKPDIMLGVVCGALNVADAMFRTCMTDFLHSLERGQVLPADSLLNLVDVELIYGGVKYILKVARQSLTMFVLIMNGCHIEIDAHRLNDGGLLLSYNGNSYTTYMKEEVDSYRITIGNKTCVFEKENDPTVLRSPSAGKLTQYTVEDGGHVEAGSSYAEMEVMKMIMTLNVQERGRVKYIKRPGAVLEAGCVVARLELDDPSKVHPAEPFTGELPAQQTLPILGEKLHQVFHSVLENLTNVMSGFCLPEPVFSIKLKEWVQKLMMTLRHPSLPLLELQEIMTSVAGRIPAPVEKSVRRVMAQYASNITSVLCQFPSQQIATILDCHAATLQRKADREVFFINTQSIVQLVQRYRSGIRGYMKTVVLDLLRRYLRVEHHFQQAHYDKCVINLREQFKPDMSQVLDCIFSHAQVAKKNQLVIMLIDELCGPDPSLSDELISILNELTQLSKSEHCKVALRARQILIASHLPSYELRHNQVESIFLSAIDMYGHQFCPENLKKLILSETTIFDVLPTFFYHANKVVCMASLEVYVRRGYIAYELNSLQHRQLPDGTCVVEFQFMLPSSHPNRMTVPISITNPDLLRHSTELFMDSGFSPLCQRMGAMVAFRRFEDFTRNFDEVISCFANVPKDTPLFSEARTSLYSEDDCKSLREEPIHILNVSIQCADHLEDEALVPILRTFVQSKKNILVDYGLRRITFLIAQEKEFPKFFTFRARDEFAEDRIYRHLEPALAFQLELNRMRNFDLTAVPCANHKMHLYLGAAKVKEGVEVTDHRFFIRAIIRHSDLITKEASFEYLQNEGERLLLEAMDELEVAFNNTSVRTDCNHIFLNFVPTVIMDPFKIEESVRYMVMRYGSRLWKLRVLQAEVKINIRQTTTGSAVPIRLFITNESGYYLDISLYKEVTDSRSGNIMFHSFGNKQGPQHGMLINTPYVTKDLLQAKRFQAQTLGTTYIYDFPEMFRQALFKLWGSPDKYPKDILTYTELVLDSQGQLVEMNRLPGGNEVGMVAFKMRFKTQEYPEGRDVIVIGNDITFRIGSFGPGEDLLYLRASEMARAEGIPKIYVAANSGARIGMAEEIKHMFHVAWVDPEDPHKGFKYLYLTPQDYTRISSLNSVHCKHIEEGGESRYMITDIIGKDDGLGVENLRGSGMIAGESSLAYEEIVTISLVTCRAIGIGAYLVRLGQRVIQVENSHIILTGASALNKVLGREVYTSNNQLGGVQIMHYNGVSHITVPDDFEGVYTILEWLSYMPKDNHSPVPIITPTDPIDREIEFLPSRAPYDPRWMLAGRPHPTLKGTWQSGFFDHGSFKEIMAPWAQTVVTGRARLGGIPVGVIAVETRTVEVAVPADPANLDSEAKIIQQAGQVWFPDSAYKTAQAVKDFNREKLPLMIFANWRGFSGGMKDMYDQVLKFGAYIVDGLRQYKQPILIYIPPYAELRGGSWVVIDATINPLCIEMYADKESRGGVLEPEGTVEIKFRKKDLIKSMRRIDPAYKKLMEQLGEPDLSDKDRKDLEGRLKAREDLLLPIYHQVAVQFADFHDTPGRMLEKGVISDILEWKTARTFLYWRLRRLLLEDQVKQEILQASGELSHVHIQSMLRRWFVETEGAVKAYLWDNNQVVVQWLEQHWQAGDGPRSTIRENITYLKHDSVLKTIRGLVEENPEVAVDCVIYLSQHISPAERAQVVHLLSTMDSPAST
CYP3A, sequence (P08684 2-503): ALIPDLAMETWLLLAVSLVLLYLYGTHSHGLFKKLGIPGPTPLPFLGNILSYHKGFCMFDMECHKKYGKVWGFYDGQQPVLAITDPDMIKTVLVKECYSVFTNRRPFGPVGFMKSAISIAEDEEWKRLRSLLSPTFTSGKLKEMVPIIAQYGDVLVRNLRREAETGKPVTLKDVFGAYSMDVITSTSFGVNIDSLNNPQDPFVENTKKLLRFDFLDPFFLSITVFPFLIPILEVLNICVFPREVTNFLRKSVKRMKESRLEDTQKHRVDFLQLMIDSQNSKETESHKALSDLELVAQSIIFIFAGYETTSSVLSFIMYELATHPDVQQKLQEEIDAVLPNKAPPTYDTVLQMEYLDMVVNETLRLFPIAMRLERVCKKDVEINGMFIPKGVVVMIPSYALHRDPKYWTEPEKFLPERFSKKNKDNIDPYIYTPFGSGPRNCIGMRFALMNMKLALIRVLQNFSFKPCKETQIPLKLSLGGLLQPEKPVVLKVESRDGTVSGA
T1 sequence (P11712 whole entry): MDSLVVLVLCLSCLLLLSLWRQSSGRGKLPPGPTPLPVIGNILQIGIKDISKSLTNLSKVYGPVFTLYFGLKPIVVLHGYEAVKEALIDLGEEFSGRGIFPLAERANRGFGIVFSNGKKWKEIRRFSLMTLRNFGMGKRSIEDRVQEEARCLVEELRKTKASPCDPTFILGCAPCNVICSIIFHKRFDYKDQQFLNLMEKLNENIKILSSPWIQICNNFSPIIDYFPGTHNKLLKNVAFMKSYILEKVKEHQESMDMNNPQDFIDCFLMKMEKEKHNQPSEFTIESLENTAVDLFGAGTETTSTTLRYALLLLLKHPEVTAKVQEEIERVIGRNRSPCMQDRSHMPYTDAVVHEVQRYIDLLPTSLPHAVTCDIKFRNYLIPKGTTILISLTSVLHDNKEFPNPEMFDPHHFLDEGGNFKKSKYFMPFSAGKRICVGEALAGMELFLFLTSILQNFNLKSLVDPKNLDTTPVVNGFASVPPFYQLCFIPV

Row | SMILES | IC50 [1] | IC50 [2] | incorporation of 14C-acetate into free cholesterol ([2]; SZ95 cells, TLC, vs. vehicle) | incorporation of 14C-acetate into SZ95 cell lipid species containing or comprised of fatty acids ([2]; TLC, cholesterol esters, triglycerides, free fatty acids, diglycerides, monoglyceride, phospholipid, vs. vehicle) | IC50 [3] | exposures (AUC and Cmax) vs. dose [4] | effect of food on absorption ([4]; po) | frequency of adverse events vs. dose and duration ([4]; po) | IC50 [5] | median Tmax ([6]; fasted state) | median Tmax ([6]; fed state) | maximum tolerated dose ([6]; single doses up to 800 mg, repeated doses up to 400 mg/day) | IC50 [7] | IC50 [8] | IC50 [9] | IC50 [10] | half-life [11] | IC50 [12]
1 | CC(C)n1ncc2c1C(=O)CC1(CCN(C(=O)c3ccc4ccc(N)nc4c3)CC1)C2 [Example 3, 1′-(2-aminoquinoline-7-carbonyl)-1-isopropyl-4,6-dihydrospiro[indazole-5,4′-piperidin]-7(1H)-one] | 5 nM | 90 nM | did not alter | clear inhibition | 5 nM |  |  |  |  |  |  |  |  |  |  |  |  | 
2 | Cc1nc2ccc(C(=O)N3CCC4(CC3)CC(=O)c3c(cnn3C(C)C)C4)cc2[nH]1 [Example 1, 1-isopropyl-1′-(2-methyl-1H-benzo[d]imidazole-5-carbonyl)-4,6-dihydrospiro[indazole-5,4′-piperidin]-7(1H)-one] | 27 nM | 679 nM |  |  | 11 nM | increased dose-proportionally | modestly decreased the rate but not the extent | no dose- or duration-related increase | > 30000 nM | 1 to 2 h | 3 to 4 h | not established | > 30000 nM | > 30000 nM | 98 nM | > 30000 nM | 10 to 13 h | > 30000 nM
